Data reported in article PMC6009894, “Molecular modelling insights into a physiologically favourable approach to eicosanoid biosynthesis inhibition through novel thieno[2,3-b]pyridine derivatives” (Journal of Enzyme Inhibition and Medicinal Chemistry, 2018).
Several values for one entry are separate records, joined by “and”; a condition that tells them apart may be missing. Identical values can stand only once.

What was measured:
[1] = system: carrageenan-induced rat paw oedema; experiment: carrageenan-induced rat paw oedema assay; assay type: in vivo, Sprague–Dawley rats; conditions: for Inhibition of acute inflammation % inh / Swel (mean difference in rat paw volume between right and left paw): dose equivalent to 70 mg kg-1 ibuprofen; for Swel (mean difference in rat paw volume between right and left paw): DMSO; for inflammation reduction % (4h): rat paw oedema, 4 h time interval, subcutaneous, equimolar to ibuprofen 70 mg kg-1
Description: According to a priori test results, experiments were conducted on young adult male Sprague–Dawley rats (5 rats per group), weighing 140–170 g. The animals were housed at cages in a temperature controlled (25 ± 1 °C) environment and were fed ad libitum with standard laboratory chow and allowed free access to water. […] The animal protocol is in accordance with the Animal Ethical Care regulations in the Faculty of Pharmacy, Helwan University.
Compounds (equimolar to the reference drug) were dissolved in DMSO and administrated subcutaneously. One hour later, paw oedema was induced by subplantar injection of 0.1 ml of 1% carrageenan (Sigma-Aldrich, St. Louis, MO) into the right hind paw. Paw volume was measured using a water plethysmometer (Basile, Comerio, Italy). The difference between the right and left paw volume was measured at 1, 2, 3, and 4 h after induction of inflammation.
The control group (five rats per group) received DMSO subcutaneously and carrageenan in the subplantar region. Results were expressed as percentage inhibition of inflammation.

[2] = biological target: T1, 5-LOX (Homo sapiens, UniProt P09917); experiment: 5-LOX Inhibitor Screening Assay Kit (Cayman); assay type: biochemical; conditions: for 5-LOX IC50 level: in words
T1 sequence (P09917 1-674): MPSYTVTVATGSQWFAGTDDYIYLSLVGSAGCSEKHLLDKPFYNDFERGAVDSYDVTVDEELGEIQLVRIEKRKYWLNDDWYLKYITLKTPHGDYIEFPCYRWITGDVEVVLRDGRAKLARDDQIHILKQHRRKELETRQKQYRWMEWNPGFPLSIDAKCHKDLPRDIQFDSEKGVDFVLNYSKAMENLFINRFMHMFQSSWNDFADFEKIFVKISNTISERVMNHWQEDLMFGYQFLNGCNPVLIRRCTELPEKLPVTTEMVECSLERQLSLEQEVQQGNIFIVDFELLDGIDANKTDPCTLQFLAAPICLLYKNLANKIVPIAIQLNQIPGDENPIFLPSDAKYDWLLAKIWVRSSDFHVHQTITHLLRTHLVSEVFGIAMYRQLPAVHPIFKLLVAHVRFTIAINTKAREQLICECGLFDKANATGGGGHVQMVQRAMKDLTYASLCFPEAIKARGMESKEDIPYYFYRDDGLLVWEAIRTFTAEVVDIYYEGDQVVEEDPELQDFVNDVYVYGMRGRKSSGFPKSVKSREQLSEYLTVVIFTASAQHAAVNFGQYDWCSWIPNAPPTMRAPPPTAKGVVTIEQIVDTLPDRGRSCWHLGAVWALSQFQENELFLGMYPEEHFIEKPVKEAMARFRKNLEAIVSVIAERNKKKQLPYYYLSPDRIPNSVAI
Excerpt: (§1) The used protocol was according to the manufacturer protocol guide and instructions using ELISA plate reader.

[3] = biological target: T2, COX-2 (human) (Homo sapiens, UniProt P35354); experiment: COX-2 (human) Inhibitor Screening Assay Kit (Cayman); assay type: biochemical; conditions: for selectivity index COX-2/COX-1: towards COX-2 than COX-1
T2 construct: purchased Cayman (Ann Arbor, MI) 701080
T2 sequence (P35354 18-604): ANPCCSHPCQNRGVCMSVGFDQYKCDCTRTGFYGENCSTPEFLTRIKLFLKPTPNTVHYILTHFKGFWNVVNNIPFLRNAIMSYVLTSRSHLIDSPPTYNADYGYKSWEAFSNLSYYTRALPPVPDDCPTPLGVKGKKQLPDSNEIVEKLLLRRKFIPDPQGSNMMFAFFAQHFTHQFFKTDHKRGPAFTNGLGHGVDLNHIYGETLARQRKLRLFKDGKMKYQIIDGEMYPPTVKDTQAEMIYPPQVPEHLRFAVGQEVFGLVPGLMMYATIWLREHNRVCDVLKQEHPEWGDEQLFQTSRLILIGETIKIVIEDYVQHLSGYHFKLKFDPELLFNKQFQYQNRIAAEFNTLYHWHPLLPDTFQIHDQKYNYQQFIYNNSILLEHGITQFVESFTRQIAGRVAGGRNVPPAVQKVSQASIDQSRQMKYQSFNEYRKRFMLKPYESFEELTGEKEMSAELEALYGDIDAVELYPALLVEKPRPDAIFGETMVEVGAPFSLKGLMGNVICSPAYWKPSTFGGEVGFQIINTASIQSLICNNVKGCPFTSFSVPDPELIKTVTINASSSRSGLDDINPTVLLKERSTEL
Excerpt: as §1

[4] = biological target: T3, COX-1 (human) (Homo sapiens, UniProt P23219); experiment: COX-1 (human) Inhibitor Screening Assay Kit (Cayman); assay type: biochemical
T3 construct: purchased Cayman (Ann Arbor, MI) 701070
Excerpt: as §1

T3 sequence (P23219 24-599): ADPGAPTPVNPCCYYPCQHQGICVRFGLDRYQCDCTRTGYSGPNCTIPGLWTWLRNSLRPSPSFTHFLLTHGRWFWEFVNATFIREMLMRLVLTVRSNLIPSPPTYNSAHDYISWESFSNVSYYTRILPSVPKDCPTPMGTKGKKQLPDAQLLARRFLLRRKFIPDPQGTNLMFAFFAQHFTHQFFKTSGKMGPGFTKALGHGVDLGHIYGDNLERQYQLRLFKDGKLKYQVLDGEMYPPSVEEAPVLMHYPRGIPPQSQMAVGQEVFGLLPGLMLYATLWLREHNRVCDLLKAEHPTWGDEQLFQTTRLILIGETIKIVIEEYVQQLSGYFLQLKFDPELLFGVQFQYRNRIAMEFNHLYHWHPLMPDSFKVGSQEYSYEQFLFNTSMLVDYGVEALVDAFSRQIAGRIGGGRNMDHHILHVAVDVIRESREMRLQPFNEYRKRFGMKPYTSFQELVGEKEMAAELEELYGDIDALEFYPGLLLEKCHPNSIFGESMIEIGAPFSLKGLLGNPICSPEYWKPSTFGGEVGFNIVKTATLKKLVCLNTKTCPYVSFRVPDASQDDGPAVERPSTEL

SMILES: Cc1cc(C)c2c(N)c(C(=O)NN=Cc3ccccc3)sc2n1 [Compound 7a, 3-Amino-4,6-dimethyl-thieno [2,3-b] pyridine-2-carboxylic acid benzylidene-hyrazide]
- Inhibition of acute inflammation % inh ([1]; 1 h): 37.68%
- Swel (mean difference in rat paw volume between right and left paw) ([1]; 1 h after carrageenan): 0.143
- Inhibition of acute inflammation % inh ([1]; 2 h): 42.3%
- Swel (mean difference in rat paw volume between right and left paw) ([1]; 2 h after carrageenan): 0.15
- Inhibition of acute inflammation % inh ([1]; 3 h): 71.2%
- Swel (mean difference in rat paw volume between right and left paw) ([1]; 3 h after carrageenan): 0.156
- Inhibition of acute inflammation % inh ([1]; 4 h): 73.54%
- Swel (mean difference in rat paw volume between right and left paw) ([1]; 4 h after carrageenan): 0.16
- inflammation reduction % (4h) [1]: 73.5% and 73.54%
- 5-LOX inhibition, times higher than 8a ([2]; compared with 8a): 35 times
- 5-LOX inhibition, times higher than 8c ([2]; compared with 8c): 87 times
- 5-LOX IC50 level [2]: nanomolar level
- IC50 [3]: 9.99 µM
- COX-2 inhibition, times higher than 8a ([3]; compared with 8a): 3.6 times
- COX-2 inhibition, times higher than 8c ([3]; compared with 8c): 1.8 times
- selectivity index COX-2/COX-1 [3]: 4.6
- IC50 [4]: 45.9 µM

SMILES: Cc1cc(C)c2c(N)c(C(=O)N/N=C/c3ccc(Cl)cc3)sc2n1 [Compound 7b, 3-Amino-4,6-dimethyl-thieno [2,3-b] pyridine-2-carboxylic acid (4-chloro-benzylidene)-hyrazide]
- Inhibition of acute inflammation % inh ([1]; 1 h): 22.1%
- Swel (mean difference in rat paw volume between right and left paw) ([1]; 1 h after carrageenan): 0.17
- Inhibition of acute inflammation % inh ([1]; 2 h): 35.62%
- Swel (mean difference in rat paw volume between right and left paw) ([1]; 2 h after carrageenan): 0.16
- Inhibition of acute inflammation % inh ([1]; 3 h): 54.75%
- Swel (mean difference in rat paw volume between right and left paw) ([1]; 3 h after carrageenan): 0.25
- Inhibition of acute inflammation % inh ([1]; 4 h): 73.02%
- Swel (mean difference in rat paw volume between right and left paw) ([1]; 4 h after carrageenan): 0.17
- inflammation reduction % (4h) [1]: 73.02%
- 5-LOX IC50 level [2]: nanomolar level
- IC50 [3]: 7.5 µM and 7.52 µM
- selectivity index COX-2/COX-1 [3]: 4.2
- IC50 [4]: 31.8 µM
- melting point: 280 to 282 °C

SMILES: Cc1cc(C)c2c(n1)sc1c(=O)n(/N=C/c3ccc(Cl)cc3)nnc12 [Compound 8b, 7,9-Dimethyl-3-[(4-chloro-phenyl-methylene)amino]pyrido[3ˈ,2ˈ:4,5] thieno [3,2-d][1,2,3]triazin-4(3H)-one]
- Inhibition of acute inflammation % inh ([1]; 1 h): 0%
- Swel (mean difference in rat paw volume between right and left paw) ([1]; 1 h after carrageenan): 0.23
- Inhibition of acute inflammation % inh ([1]; 2 h): 0%
- Swel (mean difference in rat paw volume between right and left paw) ([1]; 2 h after carrageenan): 0.27
- Inhibition of acute inflammation % inh ([1]; 3 h): 56.54%
- Swel (mean difference in rat paw volume between right and left paw) ([1]; 3 h after carrageenan): 0.24
- Inhibition of acute inflammation % inh ([1]; 4 h): 78.23%
- Swel (mean difference in rat paw volume between right and left paw) ([1]; 4 h after carrageenan): 0.14
- inflammation reduction % (4h) [1]: 78.2% and 78.23%
- 5-LOX inhibition, times less potent than 7a ([2]; compared with 7a): approximately 90 times
- 5-LOX IC50 level [2]: micromolar level
- IC50 [3]: 36 µM
- IC50 [4]: 19.9 µM
- affinity towards COX-1 over COX-2 [4]: approximately 2 fold
- melting point: 255 to 257 °C

SMILES: COc1ccc(/C=N/n2nnc3c(sc4nc(C)cc(C)c43)c2=O)cc1 [Compound 8c, 7,9-Dimethyl-3-[(4-methoxy-phenyl-methylene)amino]pyrido[3ˈ,2ˈ:4,5]thieno [3,2-d][1,2,3]triazin-4(3H)-one]
- Inhibition of acute inflammation % inh ([1]; 1 h): 0%
- Swel (mean difference in rat paw volume between right and left paw) ([1]; 1 h after carrageenan): 0.246
- Inhibition of acute inflammation % inh ([1]; 2 h): 34.61%
- Swel (mean difference in rat paw volume between right and left paw) ([1]; 2 h after carrageenan): 0.17
- Inhibition of acute inflammation % inh ([1]; 3 h): 41.78%
- Swel (mean difference in rat paw volume between right and left paw) ([1]; 3 h after carrageenan): 0.316
- Inhibition of acute inflammation % inh ([1]; 4 h): 79.36%
- Swel (mean difference in rat paw volume between right and left paw) ([1]; 4 h after carrageenan): 0.13
- inflammation reduction % (4h) [1]: 79.4% and 79.36%
- 5-LOX IC50 level [2]: micromolar level
- IC50 [3]: 19 µM
- IC50 [4]: 7.7 µM and 7.66 µM
- affinity towards COX-1 over COX-2 [4]: approximately 2 fold
- melting point: 240 to 242 °C
